{"source": "patent US20250263404A1", "about": "“AMINOPYRIDINES AS ACTIVATORS OF PI3 KINASE” (UCL Business Ltd, priority 2021, published 2025)", "key": {"[1]": {"system": "mutant PI3Kα (D603K, D603A, 603DCN_AAA605, D603A/F1016S, L1006R, F1016S, L1006R/F1016S)", "experiment": "Activation of binding-pocket mutants of PI3Kα", "type": "biochemical", "details": "all mutants activatable by pY", "excerpt": "The inventors then performed mutagenesis in attempt to generate 1938-resistant mutants. Based on the crystal structure and SAR data, we made the following mutants: D603K, D603A, 603DCN_AAA605 triple mutant, D603A/F1016S double mutant, L1006R, F1016S, and the L1006R/F1016S double mutant."}, "[2]": {"molecular_target": "T1, mTORC1 (mTOR/RAPTOR/LST8 complex) (Homo sapiens, UniProt P42345)", "T1 construct": "made in house", "experiment": "mTORC1 kinase assay (Phos-tag gel)", "type": "biochemical", "details": "200 μM 1938", "protocol": "(§1) 133 protein kinases and 7 lipid kinases were counterscreened, with […] used at 1 μM, using the Adapta, Lantha and Z-LYTE assays (SelectScreen Kinase Profiling Service; Thermofisher—experimental details of these assays can be found here: https://www.thermofisher.com/uk/en/home/industrial/pharma-biopharma/drug-discovery-development/target-and-lead-identification-and-validation/kinasebiology/kinase-activity-assays.html. The tree representation in KinMap generated courtesy of Cell Signaling Technology, Inc. (www.cellsignal.com). mTORC1 (mTOR/RAPTOR/LST8) protein complex and ATM kinase and substrates were produced as previously described (Anandapadamanaban, M. et al. Science (New York, NY 366, 203-210 (2019); Baretic, D. et al. Sci Adv 3, e1700933 (2017). Screening of 1938 was conducted using SuperSep Phos-Tag 50 μmol/l 100×100×6.6 mm 17-well (192-18001/199-18011) gels. For ATM assays, 100 nM ATM was incubated for 30 min at 30° C. with 5 μM GST-p53 and 1 mM ATP, in the absence or presence of 200 μM 1938 in ATM Kinase Buffer (50 mM HEPES pH 7.5, 100 mM NaCl, 10% glycerol, 2 mM […], 5 mM MgCl2). […] Gels were then stained using InstantBlue™ Coomassie stain, and then quantified using BioRad Image Lab Software. […]"}, "BRK": {"molecular_target": "BRK (Homo sapiens, UniProt Q13882)", "sequence (Q13882 whole entry)": "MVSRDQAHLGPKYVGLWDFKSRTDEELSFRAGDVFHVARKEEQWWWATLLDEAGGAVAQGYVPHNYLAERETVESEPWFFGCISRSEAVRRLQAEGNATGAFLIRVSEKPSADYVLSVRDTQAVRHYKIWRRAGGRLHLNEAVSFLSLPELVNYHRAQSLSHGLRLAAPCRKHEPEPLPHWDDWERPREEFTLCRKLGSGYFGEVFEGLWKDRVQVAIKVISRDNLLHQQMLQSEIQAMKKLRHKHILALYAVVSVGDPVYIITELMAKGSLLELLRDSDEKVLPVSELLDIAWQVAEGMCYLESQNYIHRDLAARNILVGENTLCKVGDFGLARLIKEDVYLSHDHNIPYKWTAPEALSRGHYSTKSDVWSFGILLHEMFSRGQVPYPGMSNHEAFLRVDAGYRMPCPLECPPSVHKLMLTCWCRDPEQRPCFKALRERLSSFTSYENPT", "experiment": "SelectScreen kinase profiling, BRK", "type": "biochemical", "details": "1 μM of 1938, 75 μM ATP", "protocol": "as §1"}, "LCK": {"molecular_target": "LCK (Homo sapiens, UniProt P06239)", "sequence (P06239 whole entry)": "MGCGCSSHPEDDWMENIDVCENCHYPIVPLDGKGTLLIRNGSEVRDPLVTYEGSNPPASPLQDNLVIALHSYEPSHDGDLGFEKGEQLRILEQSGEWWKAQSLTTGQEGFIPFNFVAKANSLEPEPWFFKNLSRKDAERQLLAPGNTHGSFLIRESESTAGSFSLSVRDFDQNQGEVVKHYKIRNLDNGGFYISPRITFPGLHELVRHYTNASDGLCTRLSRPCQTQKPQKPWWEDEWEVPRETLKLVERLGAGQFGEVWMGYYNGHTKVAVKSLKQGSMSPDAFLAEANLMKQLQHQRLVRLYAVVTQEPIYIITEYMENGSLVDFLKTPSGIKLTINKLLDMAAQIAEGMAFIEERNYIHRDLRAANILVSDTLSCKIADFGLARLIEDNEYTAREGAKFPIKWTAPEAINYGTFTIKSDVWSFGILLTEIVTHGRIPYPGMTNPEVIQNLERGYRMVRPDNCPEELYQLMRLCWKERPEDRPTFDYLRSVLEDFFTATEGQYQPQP", "experiment": "SelectScreen kinase profiling, LCK", "type": "biochemical", "details": "1 μM of 1938, 50 μM ATP", "protocol": "as §1"}, "[3]": {"system": "PI3Kα-WT and PI3Kα-KO MEFs", "experiment": "CellTiter-Glo ATP content in MEFs", "type": "cell-based, mouse", "protocol": "A role for PI3Kα in activation of anabolic metabolism, cell cycle progression and cell proliferation is well-established.\nMEFs were seeded at 5000 cells per well in 96-well plates in DMEM supplemented with 10% FBS and 1% P/S, and allowed to attach overnight. The next day, cells were serum starved for 4 h prior to compound treatment in fresh serum-free DMEM. Compounds solubilised in DMSO were diluted 1:2 in a 12-point concentration response curve in DMSO. Intermediate plates were prepared by transferring 4 μl of compounds in DMSO into 96 μl of serum-free DMEM media. This was then used to treat cell plates by transferring 12.5 μl of solution from the intermediate plate into 87.5 μl of serum-free DMEM in the cell plates. […] Cell plates were incubated for 24 h, 48 h or 72 h at 37° C., 5% CO2, followed by determination of cell survival using the CellTiter-Glo® reagent according to manufacturer's instructions (Promega #G7571). Endpoint luminescence was measured using CLARIOstar (BMG). Compound data were analyzed using GraphPad Prism 8."}}, "data": [{"compound": "CCN1CCN(c2ccc(Nc3cc(Nc4cccc5c4N(C(C)=O)CC5)ccn3)cc2)CC1", "note": "[Example 1938]", "values": [{"measurement": "activation of pocket mutants by 1938", "setting": "[1]", "value": "resistant to activation by 1938"}, {"measurement": "activity of mTORC1", "setting": "[2]", "value": "did not affect"}, {"measurement": "inhibition of BRK", "setting": "BRK", "value": 56, "unit": "%"}, {"measurement": "inhibition of LCK", "setting": "LCK", "value": 58, "unit": "%"}, {"measurement": "concentrations that decreased ATP levels (PI3Kα-independent effects)", "setting": "[3]; 24 h incubation, PI3Kα-WT and PI3Kα-KO MEFs", "value": "> 7.5", "unit": "µM"}, {"measurement": "concentrations with non-PI3Kα-dependent effects", "setting": "[3]; 48 h and 72 h incubation", "value": "≥ 2", "unit": "µM"}, {"measurement": "EC50", "setting": "[3]; Mus musculus, PI3Kα-WT MEFs, CellTiterGlo, read-out: EC50 of increase in metabolic activity (ATP content)", "value": "~500", "unit": "nM"}]}]}
